Data as given in PMC9781003, “Two Antenna-Enriched Odorant Binding Proteins in Dioryctria abietella Tuned to General Odorants and Insecticides” (Insects, 2022).
“And” between values parts separate entries of the source, which are not always exact repeats. Identical values can stand only once. Like-named read-outs stand apart in the source and are kept apart here.

Columns and labels:
DabiOBP14 = type: binding, Dioryctria abietella; settings: for Ki: competitive displacement of 1-NPN, three replicates, mean ± SE, read-out: OBP14 Ki (dissociation constant)
Method: (§1) In the binding assays, we selected 100 compounds derived from host/non-host plants and man-made insecticides widely used for the control of lepidopteran pests, representing 88 general odorants (21 esters, 21 alcohols, 14 aldehydes, 13 alkenes, seven ketones, 11 alkanes and one acid) and 12 insecticides. These compounds and N-phenyl-1-naphthylamine (1-NPN) were purchased from Aladdin and Sigma-Aldrich, with the highest available purity. They were first diluted into 100 mM, using methanol (HPLC purity grade, ≥99.9%) as a stock solution. The concentrations of the work solution for each ligand and 1-NPN were set at 1 mM.
In order to measure the binding properties of the DabiOBPs to the 100 ligands, competitive binding assays were performed on a RF5301PC fluorescence spectrophotometer (Shimadzu, Japan). The concentrations of DabiOBPs and the fluorescent probe 1-NPN were set at 2 μM. The binding of DabiOBPs to 1-NPN in 20 mM Tris-HCl buffer (pH 7.4) was measured by adding final concentrations of 2–16 μM 1-NPN. Accordingly, binding constants (K1-NPN) of the DabiOBPs and 1-NPN were calculated using GraphPad Prism 7 (GraphPad Software Inc., San Diego, CA). The binding of the DabiOBPs to various ligands was conducted by adding different concentrations of ligands (2, 4, 6, 8, 12, 16 and 20 μM) into the DabiOBP5/1-NPN (each 2 μM) or DabiOBP14/1-NPN (each 2 μM) mixtures. For the ligands replacing over a half of 1-NPN fluorescence (50%) at 20 μM, three replicates were performed. The excitation wavelength was set at 337 nm and the emission peaks were recorded at around 400 nm. The dissociation constants (Ki) of the tested ligands to DabiOBPs were computed, using the equation: Ki = [IC50]/(1 + [1-NPN]/K1-NPN), where [1-NPN] was the free concentration of 1-NPN and IC50 was the concentration of ligands replacing 50% of 1-NPN fluorescence.

DabiOBP5 = target: T1, DabiOBP5 (Dioryctria abietella, UniProt A0A8E6HS34); experiment: Competitive fluorescence binding assay with 1-NPN probe, recombinant DabiOBP5
T1 sequence (A0A8E6HS34 19-139): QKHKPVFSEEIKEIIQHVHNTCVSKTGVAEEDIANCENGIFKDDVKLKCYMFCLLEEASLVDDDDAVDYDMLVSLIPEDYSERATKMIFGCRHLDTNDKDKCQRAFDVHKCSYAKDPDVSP
From the text: as §1, with “They were first diluted into 100 mM, using methanol (HPLC purity grade, ≥99.9%) as a stock solution.” left out
In order to measure the binding properties of the DabiOBPs to the 100 ligands, competitive binding assays were performed on a RF5301PC fluorescence spectrophotometer (Shimadzu, Japan). The concentrations of DabiOBPs and the fluorescent probe 1-NPN were set at 2 μM. […] Accordingly, binding constants (K1-NPN) of the DabiOBPs and 1-NPN were calculated using GraphPad Prism 7 (GraphPad Software Inc., San Diego, CA). […] For the ligands replacing over a half of 1-NPN fluorescence (50%) at 20 μM, three replicates were performed. The excitation wavelength was set at 337 nm and the emission peaks were recorded at around 400 nm.

[1] = ligand at 20 μM, DabiOBP14/1-NPN each 2 μM, Tris-HCl pH 7.4, NB = no binding
[2] = ligand at 20 μM; DabiOBP5/1-NPN each 2 μM; Tris-HCl pH 7.4; NB = no binding; read-out: OBP5 F.D. (%) fluorescence displacement percent
[3] = ligand at 20 μM; DabiOBP5/1-NPN each 2 μM; Tris-HCl pH 7.4; NB = no binding
[4] = pH 7.4, read-out: OBP5 F.D. (%) fluorescence displacement percent
[5] = read-out: OBP5 Ki (dissociation constant); competitive displacement of 1-NPN; three replicates; mean ± SE

Row | Compound | OBP14 F.D. (%) fluorescence displacement percent (DabiOBP14; [1]) [%] | inhibition at 20 µM (DabiOBP5; [2]) [%] | other results
1 | N#Cc1nn(-c2c(Cl)cc(C(F)(F)F)cc2Cl)c(N)c1[S+]([O-])C(F)(F)F (centres unmarked) [Fipronil] | 29.70 | 23.7 | 
2 | CC(C)=CCC/C(C)=C/CO [Geraniol] | 28.67 | 32.9 | 
3 | CC(=O)OC/C=C(\C)CCC=C(C)C [Geranyl acetate] | 27.39 | 26.5 | 
4 | CCCCCCC=O [Heptanal] | 25.87 | 42.5 | 
5 | CCCCCCC [Heptane] | 22.91 | 31.4 | 
6 | CCCCCCCOC(C)=O [Heptyl acetate] | 33.70 | 41 | 
7 | CCCCCC=O [Hexanal] | 32.96 | 39.3 | 
8 | CCCCCCOC(C)=O [Hexyl acetate] | 29.22 | 23.7 | 
9 | O=[N+]([O-])NC1=NCCN1Cc1ccc(Cl)nc1 [Imidacloprid] | 39.56 | 22.5 | 
10 | CCCCCCCCCCCC(=O)O [Lauric acid] | 30.18 |  | OBP5 F.D. (%) fluorescence displacement percent (DabiOBP5; [3]): 33.87%
11 | C=C(C)[C@H]1CC=C(C)CC1 [Limonene] | 30.81 |  | OBP5 F.D. (%) fluorescence displacement percent (DabiOBP5; [3]): 38.31%
12 | C=CC(C)(O)CCC=C(C)C (centres unmarked) [Linalool] | 31.71 | 33.3 | 
13 | O=C1CCC[C@@H]2[C@H]3CCCN4CCC[C@@H](CN12)[C@@H]34 [Matrine] | 29.59 | 29 | 
14 | COC(C)=O [Methyl acetate] | 27.21 |  | OBP5 F.D. (%) fluorescence displacement percent (DabiOBP5; [3]): 27.62%
15 | COC(=O)c1ccccc1 [Methyl benzoate] | 30.65 | 30.5 | 
16 | CCCCCCCCCCCC(=O)OC [Methyl laurate] | 12.60 | 7.25 | 
17 | C=CC(=C)CCC=C(C)C [Myrcene] | 34.84 | 37.1 | 
18 | CCCCCCCCCCCCCCCCCCC [Nonadecane] | 15.30 | 27.7 | 
19 | CCCCCCCCC=O [Nonanal] | 23.55 | 31.5 | 
20 | CCCCCCCCCOC(C)=O [Nonyl acetate] | 22.98 | 16.5 | 
21 | C=CC(C)=CCC=C(C)C [Ocimene] | 33.18 |  | OBP5 F.D. (%) fluorescence displacement percent (DabiOBP5; [3]): 33.97%
22 | CCCCCCCCCCCCCCCCCC [Octadecane] | 23.94 | 26.5 | 
23 | CCCCCCCC=O [Octanal] | 34.48 | 35.6 | 
24 | CCCCCCCCOC(C)=O [Octyl acetate] | 30.09 | 35.4 | 
25 | OCCc1ccccc1 [Phenethyl alcohol] | 10.00 | 37.6 | 

Row | Compound | OBP14 F.D. (%) fluorescence displacement percent (DabiOBP14; [1]) [%] | inhibition at 20 µM (DabiOBP5; [2]) [%] | other results
26 | O=C(Oc1ccccc1)c1ccccc1 [Phenyl benzoate] | 34.36 | 31.7 | 
27 | O=CCc1ccccc1 [Phenylacetaldehyde] | 33.05 | 29.1 | 
28 | CCOP(=S)(OCC)O/N=C(\C#N)c1ccccc1 [Phoxim] | 89.62 |  | Ki (DabiOBP14; listed as phoxim): < 13 µM; Ki (DabiOBP14): 2.38 ± 0.28 µM; inhibition at 20 µM (DabiOBP5; [4]): 82%; Ki (DabiOBP5; [5]): < 13 µM and 2.89 µM
29 | CCCOC(C)=O [Propyl acetate] | 25.46 | 31.4 | 
30 | C=C(C)[C@H]1Cc2c(ccc3c2O[C@@H]2COc4cc(OC)c(OC)cc4[C@@H]2C3=O)O1 [Rotenone] | 58.66 |  | Ki (DabiOBP14): < 13 µM and 10.2 µM; inhibition at 20 µM (DabiOBP5; [4]): 56%; Ki (DabiOBP5; [5]): < 13 µM and 12.7 µM
31 | CC(C)=CCC/C(C)=C/CC/C(C)=C/CC/C=C(\C)CC/C=C(\C)CCC=C(C)C [Squalene] | 24.81 | 32.3 | 
32 | COc1cc(C=O)cc(OC)c1O [Syringaldehyde] | 34.32 | 38.5 | 
33 | CCCCCCCCCCCCCC [Tetradecane] | 27.13 | 25 | 
34 | CCCCCCCCCCCCCCCCCCCCCCC [Tricosane] | 27.90 | 32.8 | 
35 | CCCCCCCCCCC=O [Undecanal] | 35.28 | 27.8 | 
36 | CCCCCCCCCCC [Undecane] | 6.47 | 4.42 | 
37 | CCC/C=C\C=O [Z2-Hexenal] | 33.09 |  | OBP5 F.D. (%) fluorescence displacement percent (DabiOBP5; [3]): 39.42%
38 | CC/C=C\CCO [Z3-Hexen-1-ol] | 24.52 |  | OBP5 F.D. (%) fluorescence displacement percent (DabiOBP5; [3]): 28.57%
39 | CC/C=C\CCOC(C)=O [Z3-Hexenyl acetate] | 31.25 |  | OBP5 F.D. (%) fluorescence displacement percent (DabiOBP5; [3]): 27.72%
40 | CC/C=C\CCOC(=O)CCC [Z3-Hexenyl butyrate] |  |  | OBP14 F.D. (%) fluorescence displacement percent (DabiOBP14; pH 7.4): 26.39%; OBP5 F.D. (%) fluorescence displacement percent (DabiOBP5; [3]): 20.80%
41 | CC1=CC[C@H](C(C)C)C=C1 [α-Phellandrene] | 36.07 | 37.4 | 
42 | CC1=CCC2CC1C2(C)C (stereo not drawn) [α-Pinene] | 29.24 | 25.1 | 
43 | CC1=CC=C(C(C)C)CC1 [α-Terpinene] | 27.93 | 35.1 | 
44 | CC1=CC[C@@H](C(C)(C)O)CC1 [α-Terpineol] | 30.28 | 33.9 | 
45 | CC1=C(C=O)C(C)(C)CCC1 [β-Cyclocitral] | 32.77 |  | OBP5 F.D. (%) fluorescence displacement percent (DabiOBP5; [3]): 32.90%
46 | CC(=O)/C=C/C1=C(C)CCCC1(C)C [β-Ionone] | 62.86 | 59.5 | Ki (DabiOBP14; listed as β-ionone): < 13 µM; Ki (DabiOBP14): 8.39 ± 1.04 µM; Ki (DabiOBP5; competitive displacement of 1-NPN; three replicates; mean ± SE; listed as β-ionone; read-out: OBP5 Ki (dissociation constant)): < 13 µM; Ki (DabiOBP5; competitive displacement of 1-NPN; three replicates; mean ± SE; read-out: OBP5 Ki (dissociation constant)): 9.11 ± 1.03 µM
47 | CC1=CCC(C(C)C)=CC1 [γ-Terpinene] | 24.46 | 28.2 | 
48 | Abamectin | 4.33 |  | OBP5 F.D. (%) fluorescence displacement percent (DabiOBP5; [3]): 24.16%
49 | Farnesene | 17.77 |  | OBP5 F.D. (%) fluorescence displacement percent (DabiOBP5; [3]): 40.68%
